IC50 data for 2 compounds are collected here from BindingDB's records for patent US20250059156 (Sensorium Therapeutics, 2025).

The structures appear in SMILES notation. pIC50: −log10 of the molar value. Where only a bound is given, the exact number is not on record here.

The target of this assay is Sodium-dependent serotonin transporter (Homo sapiens, UniProt P31645). Description: SERT Inhibition Assay. The procedure:
SERT inhibition was measured using a Neruotransmitter Transportation Fluorescence assay. […] Compounds were prepared by in assay buffer (20 mM HEPES, 0.1% BSA). The compounds were added to the plated cells and incubated for 30 minutes at 37° C. 25 μL of dye solution (Molecular Devices Neurotransmitter Transporter Uptake Assay Kit) was added per well and incubated for 30 minutes at 37° C. The plates were then read on a plate reader.

Sequence of Sodium-dependent serotonin transporter (P31645 whole entry): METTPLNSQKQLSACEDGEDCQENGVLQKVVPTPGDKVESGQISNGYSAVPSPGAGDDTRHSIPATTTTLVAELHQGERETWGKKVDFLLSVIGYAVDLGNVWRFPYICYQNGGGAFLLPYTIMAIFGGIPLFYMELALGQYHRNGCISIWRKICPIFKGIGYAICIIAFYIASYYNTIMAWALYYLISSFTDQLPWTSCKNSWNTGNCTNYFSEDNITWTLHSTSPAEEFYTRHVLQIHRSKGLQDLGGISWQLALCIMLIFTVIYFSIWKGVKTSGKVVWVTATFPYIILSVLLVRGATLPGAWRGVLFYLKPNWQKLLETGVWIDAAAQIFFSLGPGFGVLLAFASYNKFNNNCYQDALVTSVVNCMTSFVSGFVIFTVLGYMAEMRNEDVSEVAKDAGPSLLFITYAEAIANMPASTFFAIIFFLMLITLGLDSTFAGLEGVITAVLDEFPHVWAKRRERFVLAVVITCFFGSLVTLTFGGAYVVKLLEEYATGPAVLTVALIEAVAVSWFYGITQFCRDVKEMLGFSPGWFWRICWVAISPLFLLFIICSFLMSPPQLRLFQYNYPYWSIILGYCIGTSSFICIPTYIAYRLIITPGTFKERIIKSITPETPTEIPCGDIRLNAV

Turning to `COc1ccc([C@]23CCN(C)[C@H]2[C@H]2CCC[C@@H]3CC2=O)cc1OC` [US20250059156, Compound 220], the pIC50 was 6.30 to 7.00. In turn, `COc1ccc([C@@]23CCN(C)[C@@H]2[C@@H]2CCC[C@H]3CC2=O)cc1OC` [US20250059156, Compound 221] showed a pIC50 greater than 7.30.

The term pIC50 denotes the negative decadic logarithm of the IC50, by convention in mol/L. A high value points to a low IC50.
